# Data taken from patent US20110034472A1, “Novel Compounds for Treatment of Cancer and Disorders Associated With Angiogenesis Function” (UNIVERSITY OF SOUTHERN CALIFORNIA, priority 2004, published 2011).
# System: T24 bladder cancer cell lines
# Test: StaRT-PCR gene expression, SC23
# Assay type: cell-based, human
# Procedure: FIG. 21 illustrates RT-PCR gene expression analysis. Total RNA form T24 cells was isolated and cDNA was synthesized with 2.5 ug of total RNA. Standardized RT-PCR was performed with GENE system I gene expression kit (Gene Express Inc.). Each kit contains a mixture of the internal competitive templates and the corresponding primers.
# Total RNA form T24 cells were isolated after 3h, Oh, 12h, 24h, and 48h exposure to SC23.
# StaRT-PCR™ (Standardized Reverse Transcription Polymerase Chain Reaction). First described by Willey et al. ((2004) Methods Mol. Biol. 258:13-41), this technique uses standardized mixtures of competitive templates (CT) as internal standards in generating valid and reproducible numerical gene expression data for multiple genes. After the mRNA was converted to cDNA, the cDNA was mixed with a proprietary Standardized Mixture of Internal Standards™ (SMIS™, GeneExpress, Inc.). In the standard mixture, there is an internal standard CT for each gene to be measured as well as one for a reference gene. (i.e., β-actin, GAPDH). The amplicons produced by StaRT-PCR™ was then separated on capillary electrophoresis. The amount of internal standard CT or NT amplimer was determined by measuring each peak area. All data were then reported as number of molecules of mRNA for gene of interest per 10^6 molecules of reference gene (normalizer gene). Serial dilutions of the SMIS™ allow quantitative measurements over 7 log range of gene expression observed in cells from <10 to 10^7 molecules/10^6 molecules reference gene. Data presented in Table 8 are number of copies that have been normalized against 10^6 molecule of β-actin.
structure (smiles),measurement,setting,value
O=C(NNC(O)c1cc2ccccc2cc1O)c1cc2ccccc2cc1O (stereo not shown) [SC23],BCL2L1 expression,3 hours,9449.42 molecules/10^6 β-actin
same,BCL2 expression,3 hours,152.37 molecules/10^6 β-actin
same,CASP1 expression,3 hours,68.36 molecules/10^6 β-actin
same,CCNA2 expression,3 hours,126.84 molecules/10^6 β-actin
same,CCND3 expression,3 hours,195.17 molecules/10^6 β-actin
same,CCNE1 expression,3 hours,51.36 molecules/10^6 β-actin
same,CCNG1 expression,3 hours,2956.79 molecules/10^6 β-actin
same,CDC2 expression,3 hours,2365.6 molecules/10^6 β-actin
same,CDC25C expression,3 hours,394.83 molecules/10^6 β-actin
same,CDK7 expression,3 hours,1068.25 molecules/10^6 β-actin
same,CDK8 expression,3 hours,412.64 molecules/10^6 β-actin
same,CDKN1A expression,3 hours,11.42 molecules/10^6 β-actin
same,CDKN1B expression,3 hours,72.37 molecules/10^6 β-actin
same,CDKN2A expression,3 hours,415.63 molecules/10^6 β-actin
same,CDKN2C expression,3 hours,458.41 molecules/10^6 β-actin
same,CYP1A2 expression,3 hours,59.45 molecules/10^6 β-actin
same,DAP expression,3 hours,9037.57 molecules/10^6 β-actin
same,E2F4 expression,3 hours,7540.97 molecules/10^6 β-actin
same,E2F5 expression,3 hours,268.09 molecules/10^6 β-actin
same,JUN expression,3 hours,1846.15 molecules/10^6 β-actin
same,MAD expression,3 hours,496.75 molecules/10^6 β-actin
same,MAP3K14 expression,3 hours,55.57 molecules/10^6 β-actin
same,MYC expression,3 hours,974.69 molecules/10^6 β-actin
same,NFKB1 expression,3 hours,2694.24 molecules/10^6 β-actin
same,PCNA expression,3 hours,8574.58 molecules/10^6 β-actin
same,PTGS2 expression,3 hours,82.69 molecules/10^6 β-actin
same,RB1 expression,3 hours,7076.29 molecules/10^6 β-actin
same,RBL2 expression,3 hours,1287.91 molecules/10^6 β-actin
same,TGFBR2 expression,3 hours,1420.02 molecules/10^6 β-actin
same,TGIF expression,3 hours,3112.84 molecules/10^6 β-actin
same,TNFAIP1 expression,3 hours,4737.75 molecules/10^6 β-actin
same,TNFRSF1A expression,3 hours,15.56 molecules/10^6 β-actin
same,TNFSF10 expression,3 hours,82.86 molecules/10^6 β-actin
same,TP53 expression,3 hours,567.53 molecules/10^6 β-actin
same,TRAF4 expression,3 hours,69.06 molecules/10^6 β-actin
same,BCL2L1 expression,6 hours,10428.62 molecules/10^6 β-actin
same,BCL2 expression,6 hours,121.2 molecules/10^6 β-actin
same,CASP1 expression,6 hours,80.87 molecules/10^6 β-actin
same,CCNA2 expression,6 hours,348.88 molecules/10^6 β-actin
same,CCND3 expression,6 hours,175.1 molecules/10^6 β-actin
same,CCNE1 expression,6 hours,33.08 molecules/10^6 β-actin
same,CCNG1 expression,6 hours,6161.69 molecules/10^6 β-actin
same,CDC2 expression,6 hours,1650.84 molecules/10^6 β-actin
same,CDC25C expression,6 hours,606.06 molecules/10^6 β-actin
same,CDK7 expression,6 hours,778.75 molecules/10^6 β-actin
same,CDK8 expression,6 hours,354.76 molecules/10^6 β-actin
same,CDKN1A expression,6 hours,27.06 molecules/10^6 β-actin
same,CDKN1B expression,6 hours,390.76 molecules/10^6 β-actin
same,CDKN2A expression,6 hours,5611.87 molecules/10^6 β-actin
same,CDKN2C expression,6 hours,781.31 molecules/10^6 β-actin
same,CYP1A2 expression,6 hours,10 molecules/10^6 β-actin
same,DAP expression,6 hours,12572.87 molecules/10^6 β-actin
same,E2F4 expression,6 hours,1285.78 molecules/10^6 β-actin
same,E2F5 expression,6 hours,243.27 molecules/10^6 β-actin
same,JUN expression,6 hours,4168.04 molecules/10^6 β-actin
same,MAD expression,6 hours,763.05 molecules/10^6 β-actin
same,MAP3K14 expression,6 hours,68.69 molecules/10^6 β-actin
same,MYC expression,6 hours,2650.11 molecules/10^6 β-actin
same,NFKB1 expression,6 hours,3274.07 molecules/10^6 β-actin
same,PCNA expression,6 hours,6433.1 molecules/10^6 β-actin
same,PTGS2 expression,6 hours,157.43 molecules/10^6 β-actin
same,RB1 expression,6 hours,5973.3 molecules/10^6 β-actin
same,RBL2 expression,6 hours,2112.09 molecules/10^6 β-actin
same,TGFBR2 expression,6 hours,2582.67 molecules/10^6 β-actin
same,TGIF expression,6 hours,8002.87 molecules/10^6 β-actin
same,TNFAIP1 expression,6 hours,7127.73 molecules/10^6 β-actin
same,TNFRSF1A expression,6 hours,20.58 molecules/10^6 β-actin
same,TNFSF10 expression,6 hours,532.07 molecules/10^6 β-actin
same,TP53 expression,6 hours,1005.63 molecules/10^6 β-actin
same,TRAF4 expression,6 hours,91.86 molecules/10^6 β-actin
same,BCL2L1 expression,12 hours,23160.22 molecules/10^6 β-actin
same,BCL2 expression,12 hours,122.24 molecules/10^6 β-actin
same,CASP1 expression,12 hours,113.28 molecules/10^6 β-actin
same,CCNA2 expression,12 hours,211.27 molecules/10^6 β-actin
same,CCND3 expression,12 hours,137.33 molecules/10^6 β-actin
same,CCNE1 expression,12 hours,48.10 molecules/10^6 β-actin
same,CCNG1 expression,12 hours,9794.14 molecules/10^6 β-actin
same,CDC2 expression,12 hours,1566.64 molecules/10^6 β-actin
same,CDC25C expression,12 hours,779.22 molecules/10^6 β-actin
same,CDK7 expression,12 hours,2551.62 molecules/10^6 β-actin
same,CDK8 expression,12 hours,605.61 molecules/10^6 β-actin
same,CDKN1A expression,12 hours,129.69 molecules/10^6 β-actin
same,CDKN1B expression,12 hours,310.81 molecules/10^6 β-actin
same,CDKN2A expression,12 hours,403.27 molecules/10^6 β-actin
same,CDKN2C expression,12 hours,770.42 molecules/10^6 β-actin
same,CYP1A2 expression,12 hours,69 molecules/10^6 β-actin
same,DAP expression,12 hours,38087.74 molecules/10^6 β-actin
same,E2F4 expression,12 hours,1673.69 molecules/10^6 β-actin
same,E2F5 expression,12 hours,486.8 molecules/10^6 β-actin
same,JUN expression,12 hours,5419.7 molecules/10^6 β-actin
same,MAD expression,12 hours,7122.48 molecules/10^6 β-actin
same,MAP3K14 expression,12 hours,158.89 molecules/10^6 β-actin
same,MYC expression,12 hours,5205.65 molecules/10^6 β-actin
same,NFKB1 expression,12 hours,6131.17 molecules/10^6 β-actin
same,PCNA expression,12 hours,5756.09 molecules/10^6 β-actin
same,PTGS2 expression,12 hours,2138.52 molecules/10^6 β-actin
same,RB1 expression,12 hours,3301.83 molecules/10^6 β-actin
same,RBL2 expression,12 hours,2698.44 molecules/10^6 β-actin
same,TGFBR2 expression,12 hours,6799.19 molecules/10^6 β-actin
same,TGIF expression,12 hours,13858.11 molecules/10^6 β-actin
same,TNFAIP1 expression,12 hours,22572.81 molecules/10^6 β-actin
same,TNFRSF1A expression,12 hours,107.17 molecules/10^6 β-actin
same,TNFSF10 expression,12 hours,288.01 molecules/10^6 β-actin
same,TP53 expression,12 hours,1663.37 molecules/10^6 β-actin
same,TRAF4 expression,12 hours,222.84 molecules/10^6 β-actin
same,BCL2L1 expression,24 hours,30504.02 molecules/10^6 β-actin
same,BCL2 expression,24 hours,35.99 molecules/10^6 β-actin
same,CASP1 expression,24 hours,142.49 molecules/10^6 β-actin
same,CCNA2 expression,24 hours,241.1 molecules/10^6 β-actin
same,CCND3 expression,24 hours,404.3 molecules/10^6 β-actin
same,CCNE1 expression,24 hours,47.28 molecules/10^6 β-actin
same,CCNG1 expression,24 hours,17499.15 molecules/10^6 β-actin
same,CDC2 expression,24 hours,2054.95 molecules/10^6 β-actin
same,CDC25C expression,24 hours,326.46 molecules/10^6 β-actin
same,CDK7 expression,24 hours,9983.36 molecules/10^6 β-actin
same,CDK8 expression,24 hours,1706.26 molecules/10^6 β-actin
same,CDKN1A expression,24 hours,225.4 molecules/10^6 β-actin
same,CDKN1B expression,24 hours,2092.37 molecules/10^6 β-actin
same,CDKN2A expression,24 hours,163.48 molecules/10^6 β-actin
same,CDKN2C expression,24 hours,904.8 molecules/10^6 β-actin
same,CYP1A2 expression,24 hours,36.62 molecules/10^6 β-actin
same,DAP expression,24 hours,56353.65 molecules/10^6 β-actin
same,E2F4 expression,24 hours,1582.79 molecules/10^6 β-actin
same,E2F5 expression,24 hours,1178.84 molecules/10^6 β-actin
same,JUN expression,24 hours,8677.27 molecules/10^6 β-actin
same,MAD expression,24 hours,13204.24 molecules/10^6 β-actin
same,MAP3K14 expression,24 hours,143.47 molecules/10^6 β-actin
same,MYC expression,24 hours,11117.04 molecules/10^6 β-actin
same,NFKB1 expression,24 hours,16919.99 molecules/10^6 β-actin
same,PCNA expression,24 hours,12795.59 molecules/10^6 β-actin
same,PTGS2 expression,24 hours,19413.37 molecules/10^6 β-actin
same,RB1 expression,24 hours,5935.72 molecules/10^6 β-actin
same,RBL2 expression,24 hours,8604.92 molecules/10^6 β-actin
same,TGFBR2 expression,24 hours,15367.23 molecules/10^6 β-actin
same,TGIF expression,24 hours,15445.36 molecules/10^6 β-actin
same,TNFAIP1 expression,24 hours,39858.96 molecules/10^6 β-actin
same,TNFRSF1A expression,24 hours,26.61 molecules/10^6 β-actin
same,TNFSF10 expression,24 hours,151.09 molecules/10^6 β-actin
same,TP53 expression,24 hours,4238.06 molecules/10^6 β-actin
same,TRAF4 expression,24 hours,242.44 molecules/10^6 β-actin
same,BCL2L1 expression,48 hours,21299.99 molecules/10^6 β-actin
same,BCL2 expression,48 hours,22.29 molecules/10^6 β-actin
same,CASP1 expression,48 hours,184.55 molecules/10^6 β-actin
same,CCNA2 expression,48 hours,137.61 molecules/10^6 β-actin
same,CCND3 expression,48 hours,641.75 molecules/10^6 β-actin
same,CCNE1 expression,48 hours,146.61 molecules/10^6 β-actin
same,CCNG1 expression,48 hours,25388.52 molecules/10^6 β-actin
same,CDC2 expression,48 hours,497.44 molecules/10^6 β-actin
same,CDC25C expression,48 hours,68.37 molecules/10^6 β-actin
same,CDK7 expression,48 hours,19212.16 molecules/10^6 β-actin
same,CDK8 expression,48 hours,3052.4 molecules/10^6 β-actin
same,CDKN1A expression,48 hours,288.56 molecules/10^6 β-actin
same,CDKN1B expression,48 hours,414.6 molecules/10^6 β-actin
same,CDKN2A expression,48 hours,3382.09 molecules/10^6 β-actin
same,CDKN2C expression,48 hours,650.26 molecules/10^6 β-actin
same,CYP1A2 expression,48 hours,37.48 molecules/10^6 β-actin
same,DAP expression,48 hours,70325.95 molecules/10^6 β-actin
same,E2F4 expression,48 hours,3738.46 molecules/10^6 β-actin
same,E2F5 expression,48 hours,2144.23 molecules/10^6 β-actin
same,JUN expression,48 hours,9510.55 molecules/10^6 β-actin
same,MAD expression,48 hours,12999.27 molecules/10^6 β-actin
same,MAP3K14 expression,48 hours,720.55 molecules/10^6 β-actin
same,MYC expression,48 hours,8944.84 molecules/10^6 β-actin
same,NFKB1 expression,48 hours,26524.38 molecules/10^6 β-actin
same,PCNA expression,48 hours,6913.72 molecules/10^6 β-actin
same,PTGS2 expression,48 hours,26516.88 molecules/10^6 β-actin
same,RB1 expression,48 hours,6552.57 molecules/10^6 β-actin
same,RBL2 expression,48 hours,11571.33 molecules/10^6 β-actin
same,TGFBR2 expression,48 hours,5072 molecules/10^6 β-actin
same,TGIF expression,48 hours,19849.69 molecules/10^6 β-actin
same,TNFAIP1 expression,48 hours,49955.6 molecules/10^6 β-actin
same,TNFRSF1A expression,48 hours,21.29 molecules/10^6 β-actin
same,TNFSF10 expression,48 hours,79.65 molecules/10^6 β-actin
same,TP53 expression,48 hours,2821 molecules/10^6 β-actin
same,TRAF4 expression,48 hours,298.28 molecules/10^6 β-actin
